#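 Briefly, cells in 96-well plates were exposed to five compound concentrations for 48 h, and endpoints were estimated by linear interpolation. Here, GI50 denotes the concentration required for 50% inhibition of growth.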 Calls of active or inactive are those of the source. No stated cut-off is given here; in the data, active = GI50 up to about 1.1 µM and inactive = higher.
# Legend:
# Test in all cases: NCI-60 cell line screen, 48 h
# 786-0 = test system: 786-0
# A549 = test system: A549
# ACHN = test system: ACHN
# CCRF-CEM = test system: CCRF-CEM
# COLO 205 = test system: COLO 205
# DLD-1 = test system: DLD-1
# DMS-273 = test system: DMS-273
# HCC 2998 = test system: HCC 2998
# HCT-15 = test system: HCT-15
# HOP-62 = test system: HOP-62
# HOP-92 = test system: HOP-92
# IGROV-1 = test system: IGROV-1
# K562 = test system: K562
# KM-20L2 = test system: KM-20L2
# LOX IMVI = test system: LOX IMVI
# LXFL 529 = test system: LXFL 529
# M14 = test system: M14
# M19-MEL = test system: M19-MEL
# MOLT-4 = test system: MOLT-4
# Malme-3M = test system: Malme-3M
# NCI-H460 = test system: NCI-H460
# OVCAR-4 = test system: OVCAR-4
# RPMI-8226 = test system: RPMI-8226
# SK-OV-3 = test system: SK-OV-3
# SN12C = test system: SN12C
# SNB-78 = test system: SNB-78
# SW-620 = test system: SW-620
# U-251 = test system: U-251
# UACC-62 = test system: UACC-62
# XF498 = test system: XF498
# A498 = test system: A498
# CAKI-1 = test system: CAKI-1
# EKVX = test system: EKVX
# HCT-116 = test system: HCT-116
# HT-29 = test system: HT-29
# KM12 = test system: KM12
# NCI-H226 = test system: NCI-H226
# NCI-H23 = test system: NCI-H23
# NCI-H522 = test system: NCI-H522
# OVCAR-3 = test system: OVCAR-3
# OVCAR-5 = test system: OVCAR-5
# OVCAR-8 = test system: OVCAR-8
# RXF 393 = test system: RXF 393
# SF-268 = test system: SF-268
# SF-295 = test system: SF-295
# SF-539 = test system: SF-539
# SK-MEL-2 = test system: SK-MEL-2
# SNB-19 = test system: SNB-19
# SNB-75 = test system: SNB-75
# TK-10 = test system: TK-10
# UACC-257 = test system: UACC-257
# UO-31 = test system: UO-31
structure (smiles),measurement,setting,value
CCOC(=O)C(Cc1ccc2ccccc2c1)(Cc1ccc2ccccc2c1)C(C)=O,GI50,786-0,4.92 µM (inactive)
same,GI50,A549,3.78 µM (inactive)
same,GI50,ACHN,> 10 µM (inactive)
same,GI50,CCRF-CEM,5.13 µM (inactive)
same,GI50,COLO 205,> 10 µM (inactive)
same,GI50,DLD-1,2.69 µM (inactive)
same,GI50,DMS-273,5.38 µM (inactive)
same,GI50,HCC 2998,3.02 µM (inactive)
same,GI50,HCT-15,8.47 µM
same,GI50,HOP-62,7.53 µM (inactive)
same,GI50,HOP-92,5.41 µM (inactive)
same,GI50,IGROV-1,> 10 µM (inactive)
same,GI50,K562,1.67 µM (inactive)
same,GI50,KM-20L2,> 10 µM (inactive)
same,GI50,LOX IMVI,> 10 µM (inactive)
same,GI50,LXFL 529,4.47 µM (inactive)
same,GI50,M14,> 10 µM (inactive)
same,GI50,M19-MEL,> 10 µM (inactive)
same,GI50,MOLT-4,0.635 µM (active)
same,GI50,Malme-3M,3.28 µM (inactive)
same,GI50,NCI-H460,7.31 µM (inactive)
same,GI50,OVCAR-4,8.67 µM (inactive)
same,GI50,RPMI-8226,1.86 µM (inactive)
same,GI50,SK-OV-3,> 10 µM (inactive)
same,GI50,SN12C,> 10 µM (inactive)
same,GI50,SNB-78,> 10 µM (inactive)
same,GI50,SW-620,> 10 µM (inactive)
same,GI50,U-251,> 10 µM (inactive)
same,GI50,UACC-62,> 10 µM (inactive)
same,GI50,XF498,3.39 µM (inactive)
O=C1c2cccc(O)c2C(=O)c2cccc(O)c21 [ANTHRARUFIN],GI50,786-0,> 100 µM (inactive)
same,GI50,A498,> 100 µM (inactive)
same,GI50,A549,> 100 µM (inactive)
same,GI50,ACHN,> 100 µM (inactive)
same,GI50,CAKI-1,> 100 µM (inactive)
same,GI50,CCRF-CEM,> 100 µM (inactive)
same,GI50,COLO 205,> 100 µM (inactive)
same,GI50,DLD-1,> 100 µM (inactive)
same,GI50,DMS-273,> 100 µM (inactive)
same,GI50,EKVX,> 100 µM (inactive)
same,GI50,HCC 2998,> 100 µM (inactive)
same,GI50,HCT-116,> 100 µM (inactive)
same,GI50,HCT-15,> 100 µM
same,GI50,HOP-62,> 100 µM (inactive)
same,GI50,HOP-92,> 100 µM (inactive)
same,GI50,HT-29,> 100 µM (inactive)
same,GI50,IGROV-1,> 100 µM (inactive)
same,GI50,K562,> 100 µM (inactive)
same,GI50,KM12,> 100 µM (inactive)
same,GI50,LOX IMVI,> 100 µM (inactive)
same,GI50,LXFL 529,> 100 µM (inactive)
same,GI50,M14,> 100 µM (inactive)
same,GI50,M19-MEL,> 100 µM (inactive)
same,GI50,MOLT-4,> 100 µM (inactive)
same,GI50,NCI-H226,> 100 µM (inactive)
same,GI50,NCI-H23,> 100 µM (inactive)
same,GI50,NCI-H460,> 100 µM (inactive)
same,GI50,NCI-H522,> 100 µM (inactive)
same,GI50,OVCAR-3,> 100 µM (inactive)
same,GI50,OVCAR-4,> 100 µM (inactive)
same,GI50,OVCAR-5,> 100 µM (inactive)
same,GI50,OVCAR-8,> 100 µM (inactive)
same,GI50,RPMI-8226,> 100 µM (inactive)
same,GI50,RXF 393,> 100 µM (inactive)
same,GI50,SF-268,> 100 µM (inactive)
same,GI50,SF-295,> 100 µM (inactive)
same,GI50,SF-539,> 100 µM (inactive)
same,GI50,SK-MEL-2,> 100 µM (inactive)
same,GI50,SN12C,> 100 µM (inactive)
same,GI50,SNB-19,> 100 µM (inactive)
same,GI50,SNB-75,> 100 µM (inactive)
same,GI50,SNB-78,> 100 µM (inactive)
same,GI50,SW-620,> 100 µM (inactive)
same,GI50,TK-10,> 100 µM (inactive)
same,GI50,U-251,> 100 µM (inactive)
same,GI50,UACC-257,> 100 µM (inactive)
same,GI50,UACC-62,> 100 µM (inactive)
same,GI50,UO-31,> 100 µM (inactive)
same,GI50,XF498,> 100 µM (inactive)
